Test results: US20030105010A1, “Crystals and structures of ArnB aminotransferases” (priority 2001, published 2003)

Experiments:
[1] = biological target: T1, Salmonella typhimurium ArnB (Salmonella typhimurium, UniProt Q8ZNF3); experiment: ArnB aminotransfer half-reaction assay (absorbance of PMP/PLP cofactor forms at 340 nm / 430 nm); assay type: biochemical; details: for conversion of ArnB from the E-PLP form back to the E•PMP form by amino donor: excess amino acid, decrease at 430 nm and increase at 340 nm; for observed rate constant of aminotransfer from L-methionine to E-PLP ArnB: enzyme concentration 23 μM, L-methionine concentration 20 mM
T1 construct: made in house; host or cells: E. coli BL21 (DE3), vector pSB3 (modified pET26b)
T1 sequence (Q8ZNF3 whole entry): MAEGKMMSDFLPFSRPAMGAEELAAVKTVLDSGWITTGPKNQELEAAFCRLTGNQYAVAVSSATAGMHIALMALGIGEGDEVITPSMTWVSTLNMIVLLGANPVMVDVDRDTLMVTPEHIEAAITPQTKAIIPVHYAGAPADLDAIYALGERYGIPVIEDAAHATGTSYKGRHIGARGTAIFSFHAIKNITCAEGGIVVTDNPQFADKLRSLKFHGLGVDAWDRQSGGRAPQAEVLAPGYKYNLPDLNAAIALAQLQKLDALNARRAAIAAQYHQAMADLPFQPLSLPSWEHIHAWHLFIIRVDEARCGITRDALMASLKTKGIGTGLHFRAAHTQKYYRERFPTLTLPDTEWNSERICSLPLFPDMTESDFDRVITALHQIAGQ
Method: Aminotransfer half-reactions were measured at an enzyme concentration of 23 μM and substrates were added to a final concentration of 250 μM, unless otherwise indicated. Reaction progress was followed by moniotoring the absorbance maxima of the PMP or PLP cofactor forms at 340 nm or 430 nm, respectively. Resulting time courses were fit to eq. 1, describing a single-exponential decay,
Yobs=((Y0−Y∞)e^−kt)+Y∞ (Eq. 1),
where Yobs=observed signal, Y0=signal at time zero, Y∞=signal at infinite time, k is the apparent first-order rate constant, and t is time. Nonlinear least-squares fits were performed with Kaleidagraph v3.51 (Synergy Software, Reading, Pa.).

[2] = biological target: T1, Salmonella typhimurium ArnB; experiment: L-cycloserine inhibition of ArnB followed by cofactor absorbance spectrum; assay type: biochemical
ArnB from E. coli K12 = ArnB from E. coli K12 (Escherichia coli, UniProt P77690); details: compared with L-glutamate; cited from earlier work
Sequence of ArnB from E. coli K12 (P77690 whole entry): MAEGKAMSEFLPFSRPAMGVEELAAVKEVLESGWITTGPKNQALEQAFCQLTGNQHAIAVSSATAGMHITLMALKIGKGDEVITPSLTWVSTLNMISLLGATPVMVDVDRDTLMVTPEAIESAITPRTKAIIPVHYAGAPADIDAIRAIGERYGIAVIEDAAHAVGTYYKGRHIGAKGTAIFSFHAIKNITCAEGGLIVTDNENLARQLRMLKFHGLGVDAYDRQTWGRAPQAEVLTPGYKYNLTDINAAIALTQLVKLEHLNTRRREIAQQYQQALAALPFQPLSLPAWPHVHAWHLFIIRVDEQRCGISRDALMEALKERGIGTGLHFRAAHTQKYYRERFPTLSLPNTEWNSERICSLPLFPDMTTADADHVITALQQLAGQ

In the case of CSCC[C@@H](N)C(=O)O (single isomer, unassigned) [D-isomer of methionine], the “conversion of ArnB from the E-PLP form back to the E•PMP form by amino donor” value (shortened to “conversion of ArnB”) [1] was “no such effect”.
With N[C@@H](CC(=O)O)C(=O)O (single isomer, unassigned) [L-isomer of aspartic acid] the “conversion of ArnB” value [1] was “slower rate than L-methionine”.
For N[C@H]1CONC1=O [L-cycloserine], the “reaction with ArnB in the E-PMP form” value ([2]; E-PMP enzyme form) was “did not react” and the “inactivation of E-PLP ArnB” value ([2]; excess L-cycloserine, loss of 430 nm internal aldimine peak, appearance of peak centered at 334 nm) was “rapidly inactivated”.
With N[C@@H](CCC(=O)O)C(=O)O [L-glutamate] the “conversion of ArnB” value [1] was “fastest L-amino acid tested”.
For NC(=O)CC[C@H](N)C(=O)O [L-glutamine], the “use as amino donor substrate” value (ArnB from E. coli K12) is listed as “less efficiently than with L-glutamate”.
In the case of CSCC[C@H](N)C(=O)O [L-methionine], the “conversion of ArnB” value [1] was “readily converted”, the “observed rate constant of aminotransfer from L-methionine to E-PLP ArnB” value ([1]; measured at 340 nm) was 0.065 ± 0.014 min⁻¹ and the “observed rate constant of aminotransfer from L-methionine to E-PLP ArnB” value ([1]; measured at 430 nm) was 0.051 ± 0.013 min⁻¹.
In the case of O=C(O)CCCC(=O)C(=O)O [α-Ketoadipate], the “reduction in aminotransfer rate from that of α-ketoglutarate” value ([1]; E•PMP to E-PLP conversion, absorbance increase at 430 nm, α-ketoacid as amino acceptor substrate) was 3 fold.
